Experimental data taken from patent US3959468A, “Antibiotic equisetin and method of production” (The United States of America as represented by the …, priority 1974, dated 1976).
Converted amounts (≈) assume the structure as drawn. Where two headings read alike, the source gives them in different places.

What was measured:
bacteria = conditions: cited from earlier work
Neisseria perflava = assay: Minimum inhibitory concentration, agar streak test on TGY agar (N. perflava); format: cell-based; conditions: 37° C., 24 and 48 hr., read-out: Antimicrobial agent MIC
Protocol: (§1) Minimum inhibitory concentrations for microorganisms. The F. equiseti NRRL 5537 antibiotic was diluted in ethanol. Streptomycin sulfate and isoniazid were diluted in water. Amounts up to 1 ml. were added to TGY agar to provide the desired double dilution test concentrations. Minimum inhibitory concentrations of the antimicrobial agents were determined by streaking a loopful of standardized suspensions of 24- to 48-hr. cultures of selected microorganisms onto the surface of 20 ml. of the modified TGY agar in a standard petri dish. Microorganisms were cultured on TGY agar slants and diluted with TGY broth to yield a transmittance of about 90% at 600 nm. in a Spectronic-20 spectrophotometer. All cultures grew on control plates containing 1 ml. ethanol per 100 ml. TGY agar. Bacteria were incubated at 37° C. and the fungi at room temperature.

Staphylococcus aureus = assay: Minimum inhibitory concentration, agar streak test on TGY agar (S. aureus); format: cell-based; conditions: 37° C., 24 and 48 hr., read-out: Antimicrobial agent MIC
Protocol: as §1

Bacillus subtilis = assay: Minimum inhibitory concentration, agar streak test on TGY agar (B. subtilis); format: cell-based; conditions: 37° C., 24 and 48 hr., read-out: Antimicrobial agent MIC
Protocol: as §1

M. rhodochrus = assay: Minimum inhibitory concentration, agar streak test on TGY agar (M. rhodochrus); format: cell-based; conditions: NRRL B-2141, 37° C., 24 and 48 hr., read-out: Antimicrobial agent MIC
Protocol: as §1

Mycobacterium phlei = assay: Minimum inhibitory concentration, agar streak test on TGY agar (M. phlei); format: cell-based; conditions: Mycolicibacterium phlei, TGY agar, 37° C., 24 and 48 hr., read-out: Antimicrobial agent MIC
Protocol: as §1

M. smegmatis = assay: Minimum inhibitory concentration, agar streak test on TGY agar (M. smegmatis); format: cell-based; conditions: Mycolicibacterium smegmatis, NRRLB612, NRRL B-612, 37° C., 24 and 48 hr., read-out: Antimicrobial agent MIC
Protocol: as §1

Molecule: fusariogenin
- antibacterial properties (bacteria): either lack or only exhibit weak antibacterial properties

Molecule: [H]/N=C(/N)N[C@H]1[C@H](O)[C@@H](O)[C@H](O[C@@H]2O[C@@H](C)[C@](O)(C=O)[C@H]2O[C@@H]2O[C@@H](CO)[C@H](O)[C@@H](O)[C@@H]2NC)[C@@H](N/C(N)=N\[H])[C@@H]1O [Streptomycin]
- MIC (Neisseria perflava; NRRLB1458, NRRL B-1458, TGY agar): 2 µg/mL (≈ 3.44 µM)
- MIC (Neisseria perflava; NRRLB1788, NRRL B-1788, TGY agar): 2 µg/mL (≈ 3.44 µM)
- MIC (Neisseria perflava; NRRLB1789, NRRL B-1789, TGY agar): 2 µg/mL (≈ 3.44 µM)
- MIC (Neisseria perflava; NRRLB1790, NRRL B-1790, TGY agar): 2 µg/mL (≈ 3.44 µM)
- MIC (Neisseria perflava; NRRLB1791, NRRL B-1791, TGY agar): 4 µg/mL (≈ 6.88 µM)
- MIC (Staphylococcus aureus; NRRLB120, NRRL B-120, TGY agar): 2 µg/mL (≈ 3.44 µM)
- MIC (Staphylococcus aureus; NRRLB124, NRRL B-124, TGY agar): 4 µg/mL (≈ 6.88 µM)
- MIC (Staphylococcus aureus; NRRLB313, NRRL B-313, TGY agar): 2 µg/mL (≈ 3.44 µM)
- MIC (Staphylococcus aureus; NRRLB678, NRRL B-678, TGY agar): 8 µg/mL (≈ 13.8 µM)
- MIC (Staphylococcus aureus; NRRLB1317, NRRL B-1317, TGY agar): 4 µg/mL (≈ 6.88 µM)
- MIC (Staphylococcus aureus; NRRLB1318, NRRL B-1318, TGY agar): 8 µg/mL (≈ 13.8 µM)
- MIC (Staphylococcus aureus; NRRLB2746, NRRL B-2746, TGY agar): 2 µg/mL (≈ 3.44 µM)
- MIC (Bacillus subtilis; NRRLB543, NRRL B-543, TGY agar): 4 µg/mL (≈ 6.88 µM)
- MIC (Bacillus subtilis; NRRLB558, NRRL B-558, TGY agar): 8 µg/mL (≈ 13.8 µM)
- MIC (Bacillus subtilis; NRRLB644, NRRL B-644, TGY agar): 2 µg/mL (≈ 3.44 µM)
- MIC (Bacillus subtilis; NRRLB765, NRRL B-765, TGY agar): 2 µg/mL (≈ 3.44 µM)
- MIC (Bacillus subtilis; NRRLB972, NRRL B-972, TGY agar): 8 µg/mL (≈ 13.8 µM)
- MIC (Bacillus subtilis; NRRLB1650, NRRL B-1650, TGY agar): 8 µg/mL (≈ 13.8 µM)
- MIC (Bacillus subtilis; NRRLB3284, NRRL B-3284, TGY agar): 4 µg/mL (≈ 6.88 µM)
- MIC (M. rhodochrus): 2 µg/mL (≈ 3.44 µM)
- MIC (Mycobacterium phlei; NRRLB609, NRRL B-609): 2 µg/mL (≈ 3.44 µM)
- MIC (Mycobacterium phlei; NRRLB610, NRRL B-610): 2 µg/mL (≈ 3.44 µM)
- MIC (Mycobacterium phlei; NRRLB4051, NRRL B-4051): 2 µg/mL (≈ 3.44 µM)
- MIC (M. smegmatis): 2 µg/mL (≈ 3.44 µM)

Molecule: O=C1C=CCO1 [butenolide]
- antibacterial properties (bacteria): either lack or only exhibit weak antibacterial properties
